Several values for one entry are separate records, joined by “and”; a condition that tells them apart may be missing. Equal values may be shown once. Inconclusive results and toxic doses are left out. Rule as the data show it: active = T/C of 150% or more; inactive = T/C below 125%.
System: L1210 leukemia ip in BDF1 mice, survival T/C
Assay: NCI In Vivo Anticancer Drug Screen. Data for tumor model L1210 Leukemia (intraperitoneal) in B6D2F1 (BDF1) mice
Settings: endpoint: mean survival time, higher = longer survival
Method in brief: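 Survival endpoint. Drug-treated group vs vehicle group, expressed as T divided by C. Tumor passaged by transplantation.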

[1] = dose: 50.0 mg/kg/injection, schedule: Q04DX003 (ip), vehicle: saline
[2] = dose: 100.0 mg/kg/injection, schedule: Q04DX003 (ip), vehicle: saline
[3] = dose: 200.0 mg/kg/injection, schedule: Q04DX003 (ip), vehicle: saline
[4] = dose: 100.0 mg/kg/injection, schedule: Q01DX009 (ip), vehicle: saline
[5] = dose: 200.0 mg/kg/injection, schedule: Q01DX009 (ip), vehicle: saline
[6] = dose: 400.0 mg/kg/injection, schedule: Q01DX009 (ip), vehicle: saline
[7] = dose: 400.0 mg/kg/injection, schedule: Q04DX003 (ip), vehicle: saline
[8] = dose: 100.0 mg/kg/injection, schedule: Q04DX003 (ip), vehicle: Klucel (hydroxypropylcellulose) (HPC)
[9] = dose: 200.0 mg/kg/injection, schedule: Q04DX003 (ip), vehicle: Klucel (hydroxypropylcellulose) (HPC)
[10] = dose: 400.0 mg/kg/injection, schedule: Q04DX003 (ip), vehicle: Klucel (hydroxypropylcellulose) (HPC)
[11] = dose: 50.0 mg/kg/injection, schedule: Q01DX009 (ip), vehicle: saline
[12] = dose: 50.0 mg/kg/injection, schedule: Q01DX001 (ip), vehicle: saline
[13] = dose: 100.0 mg/kg/injection, schedule: Q01DX001 (ip), vehicle: saline
[14] = dose: 200.0 mg/kg/injection, schedule: Q01DX001 (ip), vehicle: saline
[15] = dose: 400.0 mg/kg/injection, schedule: Q01DX001 (ip), vehicle: saline
[16] = dose: 100.0 mg/kg/injection, schedule: Q01DX009 (ip), vehicle: Klucel (hydroxypropylcellulose) (HPC)
[17] = dose: 200.0 mg/kg/injection, schedule: Q01DX009 (ip), vehicle: Klucel (hydroxypropylcellulose) (HPC)
[18] = dose: 400.0 mg/kg/injection, schedule: Q01DX009 (ip), vehicle: Klucel (hydroxypropylcellulose) (HPC)
[19] = dose: 75.0 mg/kg/injection, schedule: Q01DX001 (ip), vehicle: saline
[20] = dose: 150.0 mg/kg/injection, schedule: Q01DX001 (ip), vehicle: saline
[21] = dose: 15.0 mg/kg/injection, schedule: Q01DX001 (ip), vehicle: carboxymethylcellulose (CMC)

Measured: T/C

CC(=O)Nc1cc(Cl)ccc1C
inactive: dose: 25.0 mg/kg/injection, schedule: Q01DX009 (ip), vehicle: saline with Tween-80 93 % of control | dose: 50.0 mg/kg/injection, schedule: Q01DX009 (ip), vehicle: saline with Tween-80 90 % of control | [1] 95 % of control | dose: 100.0 mg/kg/injection, schedule: Q01DX009 (ip), vehicle: saline with Tween-80 89 % of control | [2] 97 % of control | [3] 100 % of control

Nc1ccc2nc[nH]c2c1
inactive: [4] 98 % of control | [2] 101 % of control | [5] 95 % of control | [3] 104 % of control | [6] 87 % of control | [7] 102 % of control

CCOc1ccc(/C=C(\NC(=O)c2ccccc2)C(=O)Nc2ccccc2)cc1OC
inactive: [8] 100 % of control | [9] 87 % of control | [10] 91 % of control

O=C(NC/C(Br)=C/Br)Nc1c2ccccc2nc2ccccc12
inactive: dose: 10.0 mg/kg/injection, schedule: Q01DX009 (ip), vehicle: Klucel (hydroxypropylcellulose) (HPC) 96 % of control | dose: 20.0 mg/kg/injection, schedule: Q01DX009 (ip), vehicle: Klucel (hydroxypropylcellulose) (HPC) 107 % of control | dose: 40.0 mg/kg/injection, schedule: Q01DX009 (ip), vehicle: Klucel (hydroxypropylcellulose) (HPC) 89 % of control | dose: 75.0 mg/kg/injection, schedule: Q01DX009 (ip), vehicle: Klucel (hydroxypropylcellulose) (HPC) 89 % of control | [8] 102 % of control | [9] 94 % of control | [10] 94 % of control

CCN(CC)CCCC#CCN1CCOCC1
inactive: [11] 101 % of control | [4] 93 % of control | [2] 103 % of control | [5] 93 % of control | [3] 109 % of control

CC1(C)OC2C(COC(N)=O)OC(n3cnc4c(=O)[nH]c(N)nc43)C2O1 (stereo not drawn)
inactive: dose: 100.0 mg/kg/injection, schedule: Q01DX005 (ip), vehicle: saline 105 % of control | dose: 200.0 mg/kg/injection, schedule: Q01DX005 (ip), vehicle: saline 103 % of control

CO/N=C(/c1ccccc1)c1cccc[n+]1C
inactive: dose: 18.8 mg/kg/injection, schedule: Q04DX003 (ip), vehicle: saline 100 % of control | dose: 37.5 mg/kg/injection, schedule: Q04DX003 (ip), vehicle: saline 103 % of control

COCc1ccc(COC)cc1
inactive: [4] 96 % of control | [2] 103 % of control | [5] 95 % of control | [3] 108 % of control | [6] 98 % of control | [7] 100 % of control

S=C(Cc1ccccc1)NC1CCCCC1
inactive: [8] 103 % of control | [9] 101 % of control | [10] 95 % of control

CCCCCCCCCCCC(c1ccccc1)N(C)C (stereo not drawn)
inactive: [12] 98 % of control | [13] 93 % of control | [14] 93 % of control | [15] 93 % of control

CC(=O)N1CCCC1=O
inactive: [16] 100 % of control | [8] 96 % of control | [17] 100 % of control | [9] 102 % of control | [18] 95 % of control | [10] 102 % of control

CCCCCCCCCCC[As](=O)(O)CCCCCCCCCCC
inactive: [12] 103 % of control | [13] 97 % of control | [14] 103 % of control | [15] 101 % of control

CC(C)C1(C(C)C)NC(=O)NC1=O
inactive: dose: 100.0 mg/kg/injection, schedule: Q01DX001 (ip), vehicle: other 98 % of control | dose: 100.0 mg/kg/injection, schedule: Q01DX009 (ip), vehicle: other 101 % of control | dose: 100.0 mg/kg/injection, schedule: Q04DX003 (ip), vehicle: other 102 % of control | dose: 200.0 mg/kg/injection, schedule: Q01DX001 (ip), vehicle: other 98 % of control | dose: 200.0 mg/kg/injection, schedule: Q01DX009 (ip), vehicle: other 106 % of control | dose: 200.0 mg/kg/injection, schedule: Q04DX003 (ip), vehicle: other 98 % of control | dose: 400.0 mg/kg/injection, schedule: Q01DX001 (ip), vehicle: other 106 % of control | dose: 400.0 mg/kg/injection, schedule: Q01DX009 (ip), vehicle: other 107 % of control | dose: 400.0 mg/kg/injection, schedule: Q04DX003 (ip), vehicle: other 100 % of control

Nc1ccc(CCc2[nH]c(N)nc(=S)c2-c2ccc(Cl)cc2)cc1
inactive: dose: 200.0 mg/kg/injection, schedule: Q04DX003 (ip), vehicle: saline with Tween-80 110 % of control | dose: 400.0 mg/kg/injection, schedule: Q04DX003 (ip), vehicle: saline with Tween-80 86 % of control

CCOC(=O)C1=C(O)C(=O)C(C(=O)OCC)C1 (stereo not drawn)
inactive: [19] 86 % of control | [20] 106 % of control | dose: 300.0 mg/kg/injection, schedule: Q01DX001 (ip), vehicle: saline 90 % of control

OCC1OC(Oc2cc(O)cc3[o+]c(-c4cc(O)c(O)c(O)c4)c(OC4(CO)OC(CO)C(O)C4O)cc23)C(O)C(O)C1O (stereo not drawn)
inactive: dose: 100.0 mg/kg/injection, schedule: Q01DX001 (ip), vehicle: carboxymethylcellulose (CMC) 95 % of control | dose: 200.0 mg/kg/injection, schedule: Q01DX001 (ip), vehicle: carboxymethylcellulose (CMC) 98 % of control | dose: 400.0 mg/kg/injection, schedule: Q01DX001 (ip), vehicle: carboxymethylcellulose (CMC) 98 % of control

Cc1cccc([P+](Cc2ccccc2)(c2cccc(C)c2)c2cccc(C)c2)c1
inactive: [21] 90 % of control

CC1(C)CC(OP(=O)(Cl)OC2CC(C)(C)N(O)C(C)(C)C2)CC(C)(C)N1O
inactive: dose: 100.0 mg/kg/injection, schedule: Q01DX001 (ip), vehicle: water 97 % of control | dose: 200.0 mg/kg/injection, schedule: Q01DX001 (ip), vehicle: water 94 % of control | dose: 400.0 mg/kg/injection, schedule: Q01DX001 (ip), vehicle: water 94 % of control

Nc1cc2c3c(cccc3c1Br)C(=O)OC2=O
inactive: dose: 100.0 mg/kg/injection, schedule: Q04DX002 (ip), vehicle: Klucel (hydroxypropylcellulose) (HPC) 97 % of control | dose: 200.0 mg/kg/injection, schedule: Q04DX002 (ip), vehicle: Klucel (hydroxypropylcellulose) (HPC) 108 % of control

CC(C)NC(C)c1c[nH]c2ccccc12 (stereo not drawn)
inactive: dose: 12.5 mg/kg/injection, schedule: Q04DX003 (ip), vehicle: Klucel (hydroxypropylcellulose) (HPC) 101 % of control | dose: 25.0 mg/kg/injection, schedule: Q04DX003 (ip), vehicle: Klucel (hydroxypropylcellulose) (HPC) 97 % of control | dose: 50.0 mg/kg/injection, schedule: Q04DX003 (ip), vehicle: Klucel (hydroxypropylcellulose) (HPC) 103 % of control

CCOc1ccc(NC(C)=O)c(O)c1
inactive: [19] 101 % of control | [20] 98 % of control

Nc1ccc(-c2ccccc2)cc1Br
inactive: [21] 101 % of control | dose: 30.0 mg/kg/injection, schedule: Q01DX001 (ip), vehicle: carboxymethylcellulose (CMC) 96 % of control

CCN(CC)CCOB(OCCN(CC)CC)OCCN(CC)CC
inactive: [11] 95 % of control and 101 % of control | [1] 96 % of control | [4] 101 % of control and 110 % of control | dose: 100.0 mg/kg/injection, schedule: Q04DX002 (ip), vehicle: saline 101 % of control and 106 % of control | [2] 96 % of control | [5] 97 % of control and 103 % of control | dose: 200.0 mg/kg/injection, schedule: Q04DX002 (ip), vehicle: saline 101 % of control and 103 % of control | [3] 100 % of control | dose: 400.0 mg/kg/injection, schedule: Q04DX002 (ip), vehicle: saline 95 % of control

CC(=O)CCC(C(C)=O)C(C)=O
inactive: [13] 106 % of control | [14] 106 % of control | [15] 103 % of control

CC(=O)NC1CCCC(O)C1 (stereo not drawn)
inactive: [4] 87 % of control | [5] 92 % of control | [6] 92 % of control

Cn1nnc(N)n1
inactive: [13] 98 % of control | [2] 102 % of control | [14] 100 % of control | [3] 96 % of control | [15] 100 % of control | [7] 102 % of control

CCOc1cc(/C=N/NC(=O)c2ccccc2NC(=O)c2ccccc2)ccc1OC
inactive: [16] 92 % of control | [17] 92 % of control | [18] 101 % of control
